Here are results for 2 compounds from patent US20070059720A9 (priority 2004, published 2007).

Molecules are shown by their SMILES.

For experiment [1], the system named is EBP50. Nature of the experiment: Immunoblot of EBP50 in MCF-7 cells. The experiment is classed as cell-based, human. The following applies: 24 hours. The protocol: (§1) In Panel B, immunoprecipitation of E or T treated MCF-7 cells was performed followed by immunoblot analysis.
In general terms: A western blot detects proteins with antibodies after separation by electrophoresis.

Experiment [2] relates to MCF-7 vector control cells. Nature of the experiment: Anchorage-independent soft agar colony formation, MCF-7 vector control cells. It is filed as cell-based, human. The following applies: MCF-7 vector control cells; 1 nM estradiol or 100 nM 4-OH-Tam; 14 days. The protocol: (§2) Cells were starved for 2 days in PRF MEM (InVitrogen) supplemented with 5% fetal bovine serum (FBS, Summit Biotechnology, Fort Collins, Colo.), 6 ng/ml insulin, 200 units/ml penicillin, and 200 μg/ml streptomycin. Soft agar assays were performed in sixwell plates. Into each well, 1.5 ml of prewarmed (50° C.) 0.7% SeaPlaque agarose (FMC, Rockland, Me.) was added and dissolved in PRF MEM supplemented with 5% charcoal stripped FBS (Summit, Fort Collins, Colo.) to serve as the bottom layer, and allowed to solidify at 4° C. until to use. 0.5×10^4 cells as a single cell suspension were suspended in prewarmed (37° C.) of the same media, 4 ml of 0.5% SeaPlaque agarose was then added, and this suspension then plated as the top layer by adding it dropwise to the solidified bottom layer plates. Plates were cooled for 2 hours, and then transferred to a 37° C. humidified incubator. Two days after plating, media containing control vehicle, 1 nM estradiol, 100 nM 4-OH-Tam, 100 nM OHT plus 10 nM ICI, or 100 nM OHT plus 20 nM […] was added to the top cell layer, and the appropriate media was replaced every two days. After 14 days, the colonies were fixed, and the colony number of colonies >50 cells from quadruplicate assays were then counted. The data shown is the mean colony number of four plates, and is representative of two independent experiments.
(§3) In pancreatic cells, ectopic expression of MKP3 is reported to result in a suppression of cell growth (Fuqua et al., 2003). Thus, the growth characteristics of the MCF-7 stable MKP3 transfectants under different hormonal conditions were investigated using anchorageindependent soft agar assay (FIG. 4B).

Experiment [3] relates to progesterone receptor (PR) A and B forms. Nature of the experiment: Immunoblot of PR-A and PR-B in MCF-7 transfectants. It is filed as cell-based, human. The protocol:
Cells grown in 100 mm dishes were starved in phenol red-free (PRF), serum-free MEM (Specialty Media, Phillipsburg, N.J.) for 48 hours, and were then treated for 2 hours with vehicle (ethanol), estrogen (100 nM, 20), or OHT (100 nM). After treatment, cells were rinsed twice with ice-cold phosphate-buffered saline (PBS) and were then lysed immediately with 200 μl of cell lysis buffer (20 mM Tris HCl, pH 7.4, 150 mM NaCl, 1 mM B-glycerophosphate, 1 mM sodium orthovanadate, and 10% glycerol plus 1:100 proteinase inhibitor cocktail III) (Calbiochem, LaJolla, Calif.) per 100 mm tissue culture. The cell lysates were cleared by centrifugation at 16,100×g for 10 minutes at 4° C. Protein concentration was determined with the BCA Protein Assay kit (Pierce, Rockfold, Ill.) according to the manufacturer's directions. Equal amount of cell extracts were resolved under denaturing conditions by electrophoresis in 8-10% polyacrylamide gels containing sodium dodecyl sulfate (SDS-PAGE), and transferred to nitrocellulose membranes by electroblotting (Schleicher & Schuell, Keene, NH). After blocking of the transferred nitrocellulose membrane with TBST (20 mM Tris pH 7.6, 150 mM NaCl, 0.1% Tween-20) supplemented with 5% non-fat milk for 1 hour at room temperature, the membrane was incubated with primary antibodies either for 1 hour at room temperature (anti-ERα, 1:100 dilution; anti-AIB1, 1:100 dilution; anti-ERK2, 1:500 dilution; anti-Cyclin D1,1:500 dilution; anti-PR, C-19, 1:200 dilution; anti-p190, 1:1000 dilution; anti-V5, 1:5000 dilution), or overnight at 4° C. (anti-phospho MAPK, 1:1000 dilution; anti-phosphor-Ser118-ERα; 1:1000 dilution; MAPK p42/44, 1:1000 dilution), incubated with secondary antibodies for 1 hour at room temperature and then developed with Enhanced Chemiluminescence Reagents (Amersham Pharmacia Biotech, Piscataway, N.J.).
(§4) As expected with two hours of estrogen treatment, no induction of the two PR isoforms were detected in either the control vector (Con 1 and 2), or in the MKP3-transfected cells (FIG. 11A). […]

A further experiment deals with ezrin. The experiment in a line: Immunoblot of ezrin in MCF-7 cells. It is filed as cell-based, human. The note with it: 24 hours. The protocol:
as §1

Experiment [4] relates to EBP50. Nature of the experiment: Immunoblot of EBP50 in T47D vector and MTA2 clones. The experiment is classed as cell-based, human.
A further experiment deals with MCF-7-MKP3 cells. The experiment in a line: Anchorage-independent soft agar colony formation, MKP3-overexpressing MCF-7 transfectants. It is filed as cell-based, human. The protocol: MCF-7 cells were originally obtained from Dr. Benita Katzenellebogen, but have been maintained in the inventors' laboratory for over 10 years (Fuqua et al., 2000). MCF-7 cells were maintained in Minimal Essential Medium (MEM, InVitrogen) supplemented with 5% fetal bovine serum (Summit Biotechnology, Fort Collins, Colo.), 200 U/ml penicillin, and 200 μg/ml streptomycin. Cells were incubated at 37° C. in 5% CO2. To generate MCF-7 cells stably overexpressing MKP3, 5 μg of the plasmid pcDNA3-MKP3-V5 (Furukawa et al., 2003) or empty vector (pcDNA3-His-V5, InVitrogen), were transfected into the cells using Fugene 6 reagent Roche Clinical Laboratories, Indianapolis, Ind.) in 100 mm tissue culture dishes following the manufacturer's protocol. Stable clones overexpressing MKP3 were selected as described (Fuqua et al., 2000), and positive clones were identified using immunoblot analysis with an anti-V5 antibody (1:5000 dilution)
as §2, §3

A further experiment has as its system cyclin D1 (CCND1). Nature of the experiment: Immunoblot of CCND1 in MCF-7 transfectants. It is filed as cell-based, human. The note with it: MKP3 overexpressing cells; 2 hours. The protocol: Cells grown in 100 mm dishes were starved in phenol red-free (PRF), serum-free MEM (Specialty Media, Phillipsburg, N.J.) for 48 hours, and were then treated for 2 hours with vehicle (ethanol), estrogen (100 nM, 20), or OHT (100 nM). After treatment, cells were rinsed twice with ice-cold phosphate-buffered saline (PBS) and were then lysed immediately with 200 μl of cell lysis buffer (20 mM Tris HCl, pH 7.4, 150 mM NaCl, 1 mM B-glycerophosphate, 1 mM sodium orthovanadate, and 10% glycerol plus 1:100 proteinase inhibitor cocktail III) (Calbiochem, LaJolla, Calif.) per 100 mm tissue culture. The cell lysates were cleared by centrifugation at 16,100×g for 10 minutes at 4° C. Protein concentration was determined with the BCA Protein Assay kit (Pierce, Rockfold, Ill.) according to the manufacturer's directions. Equal amount of cell extracts were resolved under denaturing conditions by electrophoresis in 8-10% polyacrylamide gels containing sodium dodecyl sulfate (SDS-PAGE), and transferred to nitrocellulose membranes by electroblotting (Schleicher & Schuell, Keene, NH). […]
as §4

A further experiment deals with ER-positive tumors. The note with it: cited from earlier work.
The mark [5] stands for this setting: adjuvant therapy, patients with ER-positive tumors.

Turning to `C[C@]12CC[C@@H]3c4ccc(O)cc4CC[C@H]3[C@@H]1CC[C@@H]2O` [E2, 17β-Estradiol], the EBP50 levels entry is “similarly induced” with EBP50 [1] and “increased” in the experiment with EBP50 [4]. In addition, in experiment [2], the “number of colonies in soft agar” value was “increased the number of colonies”. Further, the “induction of the two PR isoforms” value in experiment [3] (two hours of treatment, control vector and MKP3-transfected cells) is recorded as “no induction”. For the same compound, the ezrin levels result in the experiment with ezrin was “similarly induced”. The “estrogen-induced colony formation of MCF-7-MKP3 clones” value with MCF-7-MKP3 cells (1 nM estradiol, versus vector control cells) is listed as “equivalent to those obtained with vector control cells”.
In the case of `CC/C(=C(\c1ccccc1)c1ccc(OCCN(C)C)cc1)c1ccccc1` [Tam, tamoxifen], the “number of colonies in soft agar” value in experiment [2] is recorded as “reduced the number of colonies”. For the same compound, in experiment [3] (two MKP3 transfectants, not observed in control MCF-7 transfectants), the PR-B levels entry is reported as “striking diminution”. For the same compound, the CCND1 levels result with cyclin D1 (CCND1) is listed as “High levels”. In the experiment on ER-positive tumors (setting [5]), the 10-year recurrence risk result is reported as “halves” and the “reduction of the risk of death from metastatic disease” value is on record as 26%. Besides, in the experiment with ER-positive tumors (human, in vivo), the “share of patients with ER-positive disease who respond” value was 60%. For the same compound, the “increase in number of soft agar colonies formed in the presence of Tam, MKP3-overexpressing transfectants compared to vector control cells” value in the experiment with MCF-7-MKP3 cells (100 nM 4-OH-Tam, two MKP3 clones, P<0.05) is about 20 fold.
